SMILES strings stand for the structures. Values after ≈ are worked out from the molar mass of the structure shown. Where two headings read alike, the source gives them in different places.

The ED50 is the dose that gives a 50% effect, or the effect in half of the subjects.

The test system of assay [1] is Staphylococcus aureus X1.1. The assay can be described thus: MIC, standard agar-dilution assay, Staphylococcus aureus X1.1. Type of assay: cell-based. The following applies: Staphylococcus aureus, X1.1.
Assay [2] relates to Staphylococcus aureus V41. The assay can be described thus: MIC, standard agar-dilution assay, Staphylococcus aureus V41. The format is cell-based.
Assay [3] relates to Staphylococcus aureus X400. The assay can be described thus: MIC, standard agar-dilution assay, Staphylococcus aureus X400. Particulars: Staphylococcus aureus, X400. The format is cell-based.
In assay [4] the test system is Staphylococcus aureus S13E. The assay can be described thus: MIC, standard agar-dilution assay, Staphylococcus aureus S13E. The format is cell-based. The following applies: Staphylococcus aureus, S13E.
Assay [5] has as its system Staphylococcus epidermidis EPI1. The assay can be described thus: MIC, standard agar-dilution assay, Staphylococcus epidermidis EPI1. The format is cell-based.
Assay [6] concerns Streptococcus pyogenes C203. The assay can be described thus: MIC, standard agar-dilution assay, Streptococcus pyogenes C203. Type of assay: cell-based.
The test system of assay [7] is Streptococcus pneumoniae Park I. The assay can be described thus: microbe, parasite or virus in culture. The following applies: Streptococcus pneumoniae. Type of assay: cell-based.
In assay [8] the test system is Streptococcus Group D X66. The assay can be described thus: MIC, standard agar-dilution assay, Streptococcus Group D X66. The format is cell-based. The following applies: Streptococcus Group D X66; agar dilution; read-out: MIC. For orientation: Agar dilution tests growth on a series of plates holding different concentrations.
The test system of the next assay is Streptococcus Group 9960. The assay can be described thus: MIC, standard agar-dilution assay, Streptococcus Group 9960. Type of assay: cell-based. The following applies: GROUP9960; Streptococcus Group 9960; agar dilution; read-out: MIC.
The test system of assay [9] is Haemophilus influenzae Holt. The assay can be described thus: MIC, standard agar-dilution assay, Haemophilus influenzae Holt. The format is cell-based.
For assay [10], the system named is Haemophilus influenzae R252. The assay can be described thus: MIC, standard agar-dilution assay, Haemophilus influenzae R252. The format is cell-based.
The next assay relates to Staphylococcus aureus. The assay can be described thus: MIC, broth-dilution microtiter test, Staphylococcus aureus. Type of assay: cell-based. An excerpt:
(§1) The MIC's in Table X were obtained using conventional broth-dilution microtiter tests.

Another assay concerns Streptococcus bovis 80. The assay can be described thus: MIC, broth-dilution microtiter test, Streptococcus bovis 80. The format is cell-based. Particulars: Streptococcus equinus.
Source text: as §1

The subject of assay [11] is Pasteurella multocida 17E. The assay can be described thus: MIC, broth-dilution microtiter test, Pasteurella multocida 17E. Type of assay: cell-based. Particulars: Pasteurella multocida 17E; bovine isolate; broth-dilution microtiter; read-out: MIC.
Source text: as §1

Assay [12] deals with Pasteurella multocida 60A. The assay can be described thus: MIC, broth-dilution microtiter test, Pasteurella multocida 60A. The format is cell-based.
Source text: as §1

For assay [13], the system named is Pasteurella hemolytica 22C. The assay can be described thus: MIC, broth-dilution microtiter test, Pasteurella hemolytica 22C. Type of assay: cell-based.
Source text: as §1

For the next assay, the system named is Mycoplasma gallisepticum. The assay can be described thus: MIC, broth-dilution microtiter test, Mycoplasma gallisepticum. Type of assay: cell-based. The following applies: Mycoplasmoides gallisepticum.
Source text: as §1

A further assay relates to Mycoplasma synoviae. The assay can be described thus: MIC, broth-dilution microtiter test, Mycoplasma synoviae. Type of assay: cell-based. The following applies: Mycoplasmopsis synoviae.
Source text: as §1

Another assay concerns Mycoplasma hyorhinis. The assay can be described thus: MIC, broth-dilution microtiter test, Mycoplasma hyorhinis. Type of assay: cell-based. The following applies: Mycoplasma hyorhinis; broth-dilution microtiter; read-out: MIC.
Source text: as §1

Assay [14] concerns Streptococcus pyogenes C203. The assay can be described thus: In vivo protection of mice experimentally infected with S. pyogenes C203. The following applies: Streptococcus pyogenes, mice, doses given 1 and 4 hours post-infection. As to the method: The C-20 modified derivatives of this invention have shown in vivo antimicrobial activity against experimentally-induced infections in laboratory animals. When two doses of test compound were administered to mice experimentally infected with S. pyogenes C203, the activity observed was measured as an ED50 value [effective dose in mg/kg to protect 50% of the test animals: see Warren Wick, et al., J. Bacteriol. 81, 233-235 (1961)].

Assay [15] has as its system Staphylococcus epidermidis EPI2. The assay can be described thus: MIC, standard agar-dilution assay, Staphylococcus epidermidis EPI2. The format is cell-based. The following applies: Staphylococcus epidermidis, EPI2.
Setting [16] is: Staphylococcus epidermidis, EPI1.
The mark [17] stands for this setting: Streptococcus bovis 80, broth-dilution microtiter, read-out: MIC.
Setting [18] is: Pasteurella multocida 60A, avian isolate, broth-dilution microtiter, read-out: MIC.
Setting [19] is: Pasteurella hemolytica 22C, broth-dilution microtiter, read-out: MIC.
Setting [20] is: C203, sc, subcutaneous, read-out: ED50, Subcutaneous.
[21] abbreviates: C203, oral, read-out: ED50, Oral.

In the case of `CCC1OC(=O)CC(O)C(C)C(OC2OC(C)C(OC3CC(C)(O)C(O)C(C)O3)C(N(C)C)C2O)C(CCN=[N+]=[N-])CC(C)C(=O)C=CC(C)=CC1COC1OC(C)C(O)C(OC)C1OC` (stereo not drawn) [Compound 2, 20-DH-DO-20-Azidotylosin], the MIC was found to be 2 µg/mL (≈ 2.12 µM) in [1]; 1 µg/mL (≈ 1.06 µM) in [2] (Staphylococcus aureus, V41); 2 µg/mL (≈ 2.12 µM) in assay [3]; 1 µg/mL (≈ 1.06 µM) in [4]; 1 µg/mL (≈ 1.06 µM) in assay [5] (setting [16]); 2 µg/mL (≈ 2.12 µM) in assay [6] (Streptococcus pyogenes, C203). The MIC in assay [7] is 32 µg/mL (≈ 33.9 µM); in assay [8] it was 128 µg/mL (≈ 136 µM); in the assay with Streptococcus Group 9960 it was 128 µg/mL (≈ 136 µM); in assay [9] (Haemophilus influenzae Holt, ampicillin-sensitive strain, read-out: MIC) it was over 128 µg/mL; in [10] (Haemophilus influenzae R252, ampicillin-resistant strain, read-out: MIC), over 128 µg/mL; with Staphylococcus aureus, 3.12 µg/mL (≈ 3.31 µM). The MIC was 50 µg/mL (≈ 53 µM) with Streptococcus bovis 80 (setting [17]); over 50 µg/mL in assay [11]; over 50 µg/mL in assay [12] (setting [18]); over 50 µg/mL in [13] (setting [19]); 1.56 µg/mL (≈ 1.65 µM) against Mycoplasma gallisepticum; 12.5 µg/mL (≈ 13.3 µM) against Mycoplasma synoviae. In addition, in the assay on Mycoplasma hyorhinis, the MIC is over 50 µg/mL. The ED50 is over 6.3 mg/kg in assay [14] (setting [20]) and 18 mg/kg in assay [14] (setting [21]).

`CCC1OC(=O)CC(O)C(C)C(OC2OC(C)C(OC3CC(C)(O)C(O)C(C)O3)C(N(C)C)C2O)C(CCSc2nnnn2C)CC(C)C(=O)C=CC(C)=CC1COC1OC(C)C(O)C(OC)C1OC` (stereo not drawn) [Compound 5, 20-DH-DO-20-[(1-N-Methyltetrazol-5-yl)thio]tylosin]: the MIC came out at 0.5 µg/mL (≈ 0.492 µM) in assay [1]; 1 µg/mL (≈ 0.984 µM) in assay [2] (Staphylococcus aureus V41, penicillin-resistant strain, agar dilution, read-out: MIC); 2 µg/mL (≈ 1.97 µM) in assay [3]; 2 µg/mL (≈ 1.97 µM) in assay [4]; 1 µg/mL (≈ 0.984 µM) in assay [5] (Staphylococcus epidermidis EPI1, agar dilution, read-out: MIC); 1 µg/mL (≈ 0.984 µM) in [6] (Streptococcus pyogenes C203, agar dilution, read-out: MIC). Further, the MIC in [7] is 32 µg/mL (≈ 31.5 µM); in assay [8], 128 µg/mL (≈ 126 µM); in the assay on Streptococcus Group 9960 it was 128 µg/mL (≈ 126 µM); in [9] (Haemophilus influenzae), over 128 µg/mL; in [10] (Haemophilus influenzae, R252), 128 µg/mL (≈ 126 µM); with Staphylococcus aureus, 1.56 µg/mL (≈ 1.54 µM). In addition, the MIC in the assay on Streptococcus bovis 80 (setting [17]) was over 50 µg/mL; in assay [11], over 50 µg/mL; in [12] (setting [18]), over 50 µg/mL; in [13] (setting [19]), over 50 µg/mL; against Mycoplasma gallisepticum it was 1.56 µg/mL (≈ 1.54 µM); in the assay on Mycoplasma synoviae, 3.12 µg/mL (≈ 3.07 µM). Further, the MIC with Mycoplasma hyorhinis is over 50 µg/mL. Further, the ED50 in assay [14] (setting [20]) was over 6.3 mg/kg; in assay [14] (setting [21]), 56 mg/kg.

As for `CCOC(=O)c1ccc(OCCC2CC(C)C(=O)C=CC(C)=CC(COC3OC(C)C(O)C(OC)C3OC)C(CC)OC(=O)CC(O)C(C)C2OC2OC(C)C(O)C(N(C)C)C2O)cc1` (stereo not drawn) [Compound 38, 20-DH-20-O-[p-(Ethoxycarbonyl)phenyl]desmycosin], the MIC in [1] is 0.5 µg/mL (≈ 0.542 µM); in [2] (Staphylococcus aureus, V41), 0.5 µg/mL (≈ 0.542 µM); in assay [3] it was 0.5 µg/mL (≈ 0.542 µM); in assay [4], 0.5 µg/mL (≈ 0.542 µM); in assay [5] (setting [16]) it was 0.5 µg/mL (≈ 0.542 µM); in assay [15], 0.25 µg/mL (≈ 0.271 µM). Moreover, the MIC in assay [6] (Streptococcus pyogenes, C203) worked out at 0.5 µg/mL (≈ 0.542 µM); in assay [7] it was 1 µg/mL (≈ 1.08 µM); in [8] it was 8 µg/mL (≈ 8.68 µM); with Streptococcus Group 9960, 16 µg/mL (≈ 17.4 µM); in assay [9] (Haemophilus influenzae) it was 16 µg/mL (≈ 17.4 µM); against Staphylococcus aureus, 0.78 µg/mL (≈ 0.846 µM). In addition, the MIC against Streptococcus bovis 80 (80) is 0.78 µg/mL (≈ 0.846 µM); in [11], 25 µg/mL (≈ 27.1 µM); in [12] (Pasteurella multocida, 60A), 50 µg/mL (≈ 54.2 µM); in assay [13] (Pasteurella, 22C), 50 µg/mL (≈ 54.2 µM); with Mycoplasma gallisepticum (Mycoplasma gallisepticum, broth-dilution microtiter, read-out: MIC), 0.39 µg/mL (≈ 0.423 µM); in the assay with Mycoplasma synoviae, 1.56 µg/mL (≈ 1.69 µM). Also, in the assay on Mycoplasma hyorhinis, the MIC was found to be 25 µg/mL (≈ 27.1 µM). The 50% effective dose (ED50) in assay [14] (setting [20]) is over 10 mg/kg; in assay [14] (setting [21]), 35 mg/kg.
